Among the test systems are NCI-H522 lung; SK-MEL-5 melanoma; LOX IMVI melanoma; COLO 205 colon; SF-268 CNS; K-562 leukemia; OVCAR-8 ovarian; KM12 colon; RXF 393 renal; OVCAR-4 ovarian.
Test in all cases: inhibition of tumour cell growth, NCI panel, 48 h

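Briefly, cells in 96-well plates were exposed to five compound concentrations for 48 h, and endpoints were estimated by linear interpolation. GI50: concentration for 50% inhibition of growth. TGI: total growth inhibition.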

`Brc1ccc(Nc2nc3ccccc3nc2Nc2ccc(Br)cc2)cc1`: the GI50 in the experiment with NCI-H522 lung was 0.449 µM; with SK-MEL-5 melanoma it was 1.56 µM; with LOX IMVI melanoma, 1.72 µM; with COLO 205 colon, 1.84 µM; with SF-268 CNS, 1.69 µM; in the experiment on K-562 leukemia, 0.786 µM. The GI50 was 0.773 µM with OVCAR-8 ovarian, 1.4 µM with KM12 colon, 1.49 µM in the experiment on RXF 393 renal and 1.25 µM with OVCAR-4 ovarian. The TGI is 3.25 µM with NCI-H522 lung; 3.11 µM in the experiment on SK-MEL-5 melanoma; 3.31 µM in the experiment with LOX IMVI melanoma; 3.35 µM in the experiment with COLO 205 colon; 13.3 µM in the experiment with SF-268 CNS; 11.6 µM with K-562 leukemia. In addition, the TGI worked out at 10.8 µM in the experiment with OVCAR-8 ovarian, 8.96 µM in the experiment with KM12 colon, 6.38 µM in the experiment on RXF 393 renal and 8.98 µM with OVCAR-4 ovarian.
As to `N#Cc1c2ccccc2c2nnc3ccc(C(F)(F)F)cc3n12`, the GI50 with NCI-H522 lung is 17 µM; in the experiment on SK-MEL-5 melanoma, 16.1 µM; with LOX IMVI melanoma it was 21.6 µM; in the experiment on COLO 205 colon it was 39.4 µM; in the experiment with SF-268 CNS, 80.7 µM; in the experiment with K-562 leukemia, 59.9 µM. The GI50 in the experiment on OVCAR-8 ovarian is 43.8 µM; with KM12 colon, 61.2 µM; in the experiment on RXF 393 renal, 23.4 µM; with OVCAR-4 ovarian it was 97.9 µM. In addition, the TGI is 68.1 µM with NCI-H522 lung; 39.8 µM in the experiment with SK-MEL-5 melanoma; 94.5 µM in the experiment with LOX IMVI melanoma; greater than 100 µM in the experiment on COLO 205 colon; greater than 100 µM in the experiment with SF-268 CNS; greater than 100 µM in the experiment on K-562 leukemia. Further, the TGI in the experiment with OVCAR-8 ovarian was greater than 100 µM; in the experiment on KM12 colon it was greater than 100 µM; in the experiment on RXF 393 renal, 80.3 µM; with OVCAR-4 ovarian, greater than 100 µM.
For the molecule `FC(F)(F)c1cc(-c2ncn(/C=C\c3nnco3)n2)cc(C(F)(F)F)c1`, the GI50 in the experiment on NCI-H522 lung was 0.0381 µM; in the experiment with SK-MEL-5 melanoma it was 0.165 µM; in the experiment on LOX IMVI melanoma, 0.0902 µM; in the experiment with COLO 205 colon, 0.055 µM; with SF-268 CNS it was 0.0462 µM; with K-562 leukemia, 0.06 µM. Moreover, the GI50 in the experiment with OVCAR-8 ovarian was 0.0589 µM; in the experiment on KM12 colon, 0.346 µM; with RXF 393 renal, 0.0216 µM; with OVCAR-4 ovarian it was 0.0442 µM. Also, the TGI in the experiment with NCI-H522 lung was 0.445 µM; with SK-MEL-5 melanoma, 2.74 µM; with LOX IMVI melanoma, 3.82 µM; in the experiment on COLO 205 colon it was 14 µM; in the experiment with SF-268 CNS, 10.1 µM; in the experiment on K-562 leukemia, greater than 42.2 µM. In addition, the TGI in the experiment with OVCAR-8 ovarian is greater than 47.7 µM; with KM12 colon, greater than 32.7 µM; in the experiment on RXF 393 renal it was 0.11 µM.

The record behind these values is PubChem BioAssay (NCI).
